# Laboratory results as given in PubChem BioAssay (NCI).
#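 All cell lines were grown in 96-well plates and treated with compound for 48 hours. At the TGI there is no net growth.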
# Assays:
# Assay in all cases: DTP human tumour cell line panel, 48 h
# [1] = test system: 786-0 renal
# [2] = test system: A498 renal
# [3] = test system: A549 NSCLC
# [4] = test system: ACHN renal
# [5] = test system: CCRF-CEM leukemia
# [6] = test system: COLO 205 colon
# [7] = test system: DLD-1 colon
# [8] = test system: DMS 114 small cell lung
# [9] = test system: EKVX NSCLC
# [10] = test system: HCC-2998 colon
# [11] = test system: HCT-116 colon
# [12] = test system: HCT-15 colon
# [13] = test system: HL-60(TB) leukemia
# [14] = test system: HOP-62 NSCLC
# [15] = test system: HT29 colon
# [16] = test system: IGROV1 ovarian
# [17] = test system: K-562 leukemia
# [18] = test system: KM12 colon
# [19] = test system: KM20L2 colon
# [20] = test system: LXFL 529 NSCLC
# [21] = test system: M14 melanoma
# [22] = test system: M19-MEL melanoma
# [23] = test system: MALME-3M melanoma
# [24] = test system: MOLT-4 leukemia
# [25] = test system: NCI-H226 lung
# [26] = test system: NCI-H23 lung
# [27] = test system: NCI-H460 lung
# [28] = test system: NCI-H522 lung
# [29] = test system: OVCAR-3 ovarian
# [30] = test system: OVCAR-4 ovarian
# [31] = test system: OVCAR-5 ovarian
# [32] = test system: OVCAR-8 ovarian
# [33] = test system: RPMI-8226 leukemia
# [34] = test system: RXF 393 renal
# [35] = test system: RXF-631 renal
# [36] = test system: SF-268 CNS
# [37] = test system: SF-295 CNS
# [38] = test system: SF-539 CNS
# [39] = test system: SK-MEL-2 melanoma
# [40] = test system: SK-MEL-28 melanoma
# [41] = test system: SK-OV-3 ovarian
# [42] = test system: SN12C renal
# [43] = test system: SNB-19 CNS
# [44] = test system: SNB-75 CNS
# [45] = test system: SNB-78 CNS
# [46] = test system: SR leukemia
# [47] = test system: SW-620 colon
# [48] = test system: TK-10 renal
# [49] = test system: U251 CNS
# [50] = test system: UACC-257 melanoma
# [51] = test system: UACC-62 melanoma
# [52] = test system: UO-31 renal
# [53] = test system: HOP-92 NSCLC
# [54] = test system: LOX IMVI melanoma
# [55] = test system: SK-MEL-5 melanoma
# [56] = test system: XF 498 CNS
# [57] = test system: CAKI-1 renal
# [58] = test system: DMS 273 small cell lung
# [59] = test system: HOP-18 NSCLC
compound,measurement,setting,value
CC1CC(c2ccc(Cl)cc2)=Nc2ccccc2S1 (stereo not given),TGI,[1],> 100 µM
same,TGI,[2],> 100 µM
same,TGI,[3],> 100 µM
same,TGI,[4],> 100 µM
same,TGI,[5],> 100 µM
same,TGI,[6],> 100 µM
same,TGI,[7],> 100 µM
same,TGI,[8],> 100 µM
same,TGI,[9],> 100 µM
same,TGI,[10],> 100 µM
same,TGI,[11],> 100 µM
same,TGI,[12],> 100 µM
same,TGI,[13],> 100 µM
same,TGI,[14],> 100 µM
same,TGI,[15],> 100 µM
same,TGI,[16],> 100 µM
same,TGI,[17],> 100 µM
same,TGI,[18],> 100 µM
same,TGI,[19],> 100 µM
same,TGI,[20],> 100 µM
same,TGI,[21],> 100 µM
same,TGI,[22],> 100 µM
same,TGI,[23],> 100 µM
same,TGI,[24],> 100 µM
same,TGI,[25],> 100 µM
same,TGI,[26],> 100 µM
same,TGI,[27],> 100 µM
same,TGI,[28],> 100 µM
same,TGI,[29],> 100 µM
same,TGI,[30],> 100 µM
same,TGI,[31],> 100 µM
same,TGI,[32],> 100 µM
same,TGI,[33],> 100 µM
same,TGI,[34],> 100 µM
same,TGI,[35],> 100 µM
same,TGI,[36],> 100 µM
same,TGI,[37],> 100 µM
same,TGI,[38],> 100 µM
same,TGI,[39],> 100 µM
same,TGI,[40],> 100 µM
same,TGI,[41],> 100 µM
same,TGI,[42],> 100 µM
same,TGI,[43],> 100 µM
same,TGI,[44],> 100 µM
same,TGI,[45],> 100 µM
same,TGI,[46],> 100 µM
same,TGI,[47],> 100 µM
same,TGI,[48],> 100 µM
same,TGI,[49],> 100 µM
same,TGI,[50],> 100 µM
same,TGI,[51],> 100 µM
same,TGI,[52],> 100 µM
C/C(CC(=O)Nc1ccccc1[N+](=O)[O-])=N\NC(N)=O,TGI,[1],> 100 µM
same,TGI,[3],> 100 µM
same,TGI,[4],> 100 µM
same,TGI,[5],> 100 µM
same,TGI,[6],> 100 µM
same,TGI,[7],> 100 µM
same,TGI,[8],> 100 µM
same,TGI,[9],> 100 µM
same,TGI,[10],> 100 µM
same,TGI,[11],> 100 µM
same,TGI,[13],> 100 µM
same,TGI,[14],> 100 µM
same,TGI,[53],> 100 µM
same,TGI,[15],> 100 µM
same,TGI,[16],> 100 µM
same,TGI,[17],> 100 µM
same,TGI,[18],> 100 µM
same,TGI,[19],> 100 µM
same,TGI,[54],> 100 µM
same,TGI,[20],> 100 µM
same,TGI,[21],> 100 µM
same,TGI,[22],> 100 µM
same,TGI,[23],> 100 µM
same,TGI,[24],> 100 µM
same,TGI,[25],> 100 µM
same,TGI,[26],> 100 µM
same,TGI,[27],> 100 µM
same,TGI,[28],> 100 µM
same,TGI,[29],> 100 µM
same,TGI,[31],> 100 µM
same,TGI,[32],> 100 µM
same,TGI,[33],> 100 µM
same,TGI,[34],> 100 µM
same,TGI,[35],> 100 µM
same,TGI,[36],> 100 µM
same,TGI,[37],> 100 µM
same,TGI,[38],> 100 µM
same,TGI,[39],> 100 µM
same,TGI,[40],> 100 µM
same,TGI,[55],> 100 µM
same,TGI,[41],> 100 µM
same,TGI,[44],> 100 µM
same,TGI,[45],> 100 µM
same,TGI,[47],> 100 µM
same,TGI,[48],> 100 µM
same,TGI,[49],> 100 µM
same,TGI,[50],> 100 µM
same,TGI,[51],> 100 µM
same,TGI,[52],> 100 µM
same,TGI,[56],> 100 µM
CN(C)C=C1C(=O)N(C)C(=O)N(C)C1=O,TGI,[1],> 100 µM
same,TGI,[2],> 100 µM
same,TGI,[3],> 100 µM
same,TGI,[4],> 100 µM
same,TGI,[57],> 100 µM
same,TGI,[5],> 100 µM
same,TGI,[7],> 100 µM
same,TGI,[8],> 100 µM
same,TGI,[58],> 100 µM
same,TGI,[9],> 100 µM
same,TGI,[10],> 100 µM
same,TGI,[11],> 100 µM
same,TGI,[12],> 100 µM
same,TGI,[13],> 100 µM
same,TGI,[59],> 100 µM
same,TGI,[53],> 100 µM
same,TGI,[15],> 100 µM
same,TGI,[17],> 100 µM
same,TGI,[18],> 100 µM
same,TGI,[19],> 100 µM
same,TGI,[54],> 100 µM
same,TGI,[20],> 100 µM
same,TGI,[21],> 100 µM
same,TGI,[22],> 100 µM
same,TGI,[23],> 100 µM
same,TGI,[24],> 100 µM
same,TGI,[25],> 100 µM
same,TGI,[26],> 100 µM
same,TGI,[27],> 100 µM
same,TGI,[29],> 100 µM
same,TGI,[30],> 100 µM
same,TGI,[31],> 100 µM
same,TGI,[32],> 100 µM
same,TGI,[33],> 100 µM
same,TGI,[34],> 100 µM
same,TGI,[37],> 100 µM
same,TGI,[38],> 100 µM
same,TGI,[39],> 100 µM
same,TGI,[40],> 100 µM
same,TGI,[55],> 100 µM
same,TGI,[42],> 100 µM
same,TGI,[43],> 100 µM
same,TGI,[44],> 100 µM
same,TGI,[45],> 100 µM
same,TGI,[46],> 100 µM
same,TGI,[47],> 100 µM
same,TGI,[48],> 100 µM
same,TGI,[49],> 100 µM
same,TGI,[50],> 100 µM
same,TGI,[51],> 100 µM
same,TGI,[52],> 100 µM
same,TGI,[56],> 100 µM
COc1ccc(/C=C/C(=O)C(C)C)cc1,TGI,[1],> 100 µM
same,TGI,[2],> 100 µM
same,TGI,[3],> 100 µM
same,TGI,[4],> 100 µM
same,TGI,[57],> 100 µM
same,TGI,[5],> 100 µM
same,TGI,[6],> 100 µM
same,TGI,[7],> 100 µM
same,TGI,[8],43 µM
same,TGI,[58],> 100 µM
same,TGI,[9],> 100 µM
same,TGI,[10],> 100 µM
same,TGI,[11],> 100 µM
same,TGI,[12],> 100 µM
same,TGI,[13],59.2 µM
same,TGI,[59],> 100 µM
same,TGI,[14],> 100 µM
same,TGI,[53],> 100 µM
same,TGI,[15],79.6 µM
same,TGI,[16],> 100 µM
same,TGI,[17],> 100 µM
same,TGI,[18],98 µM
same,TGI,[19],64.3 µM
same,TGI,[54],> 100 µM
same,TGI,[20],54.9 µM
same,TGI,[21],> 100 µM
same,TGI,[22],> 100 µM
same,TGI,[23],> 100 µM
same,TGI,[24],> 100 µM
same,TGI,[26],> 100 µM
same,TGI,[27],> 100 µM
same,TGI,[28],41.7 µM
same,TGI,[29],61.4 µM
same,TGI,[30],> 100 µM
same,TGI,[31],> 100 µM
same,TGI,[32],> 100 µM
same,TGI,[36],> 100 µM
same,TGI,[37],> 100 µM
same,TGI,[38],> 100 µM
same,TGI,[39],73.8 µM
same,TGI,[40],> 100 µM
same,TGI,[55],> 100 µM
same,TGI,[41],90.6 µM
same,TGI,[42],> 100 µM
same,TGI,[43],> 100 µM
same,TGI,[44],> 100 µM
same,TGI,[45],46.7 µM
same,TGI,[46],> 100 µM
same,TGI,[47],> 100 µM
same,TGI,[48],> 100 µM
same,TGI,[49],> 100 µM
same,TGI,[50],> 100 µM
same,TGI,[51],> 100 µM
same,TGI,[52],> 100 µM
same,TGI,[56],> 100 µM
O=C(c1ccccc1)N1C2C3CC(OCc4ccccc4)(OCc4ccccc4)C(O3)C21 (stereo not given),TGI,[1],> 100 µM
same,TGI,[2],> 100 µM
same,TGI,[3],> 100 µM
same,TGI,[4],> 100 µM
same,TGI,[57],> 100 µM
same,TGI,[5],> 100 µM
same,TGI,[6],> 100 µM
same,TGI,[7],> 100 µM
same,TGI,[8],> 100 µM
same,TGI,[9],> 100 µM
same,TGI,[10],> 100 µM
same,TGI,[11],> 100 µM
same,TGI,[12],> 100 µM
same,TGI,[13],> 100 µM
same,TGI,[14],> 100 µM
same,TGI,[53],> 100 µM
same,TGI,[16],> 100 µM
same,TGI,[17],> 100 µM
same,TGI,[19],> 100 µM
same,TGI,[54],> 100 µM
same,TGI,[20],> 100 µM
same,TGI,[21],> 100 µM
same,TGI,[22],> 100 µM
same,TGI,[23],> 100 µM
same,TGI,[24],> 100 µM
same,TGI,[25],> 100 µM
same,TGI,[26],> 100 µM
same,TGI,[27],> 100 µM
same,TGI,[28],> 100 µM
same,TGI,[30],> 100 µM
same,TGI,[31],> 100 µM
same,TGI,[32],> 100 µM
same,TGI,[33],> 100 µM
same,TGI,[34],> 100 µM
same,TGI,[35],> 100 µM
same,TGI,[36],> 100 µM
same,TGI,[38],> 100 µM
same,TGI,[39],> 100 µM
same,TGI,[40],> 100 µM
same,TGI,[55],> 100 µM
same,TGI,[41],> 100 µM
same,TGI,[42],> 100 µM
same,TGI,[43],> 100 µM
same,TGI,[44],> 100 µM
same,TGI,[45],> 100 µM
same,TGI,[47],> 100 µM
same,TGI,[48],> 100 µM
same,TGI,[49],> 100 µM
same,TGI,[51],> 100 µM
same,TGI,[52],> 100 µM
same,TGI,[56],> 100 µM
